The source of these data is US12472175B2, “Methods of treating venetoclax-resistant acute myeloid leukemia” (OREGON HEALTH & SCIENCE UNIVERSITY, priority 2019, dated 2025).

The test system of experiment [1] is MOLM-13 and MV4;11 cells with TP53 and BAX KOs. As to the kind of experiment: Small molecule inhibitor panel screen, changes common to modified MOLM-13 and MV4;11 cells. The class given is cell-based, Human. Particulars: for sensitivity to NTRK/ALK/ROS1 inhibitors: cells with TP53 KO; for change in drug sensitivity common to modified MOLM-13 and MV4;11 cells: TP53 and BAX KOs relative to non-targeting control; for sensitivity to FLT3 inhibitors: TP53 inactivated MV4;11 and MOLM-13 cells. Here is the method: Small-molecule inhibitors, purchased from LC Laboratories (Woburn, Mass., USA) and Selleck Chemicals (Houston, Tex., USA), were reconstituted in DMSO and stored at −80° C. Inc. Inhibitors were distributed into 384-well plates prepared with a single agent/well in a 7-point concentration series ranging from 10 μM to 0.04 μM for each drug. […] After three days of culture at 37° C. in 5% CO2, MTS reagent (CellTiter96 AQueous One; Promega Madison, Wis., USA) was added, optical density was measured at 490 nm, raw absorbance values were adjusted to a reference blank value, and then used to determine cell viability (normalized to untreated control wells). Prizm software(GraphPad) was used to perform non-linear regression analyses on normalized values for the determination of IC50.
FIG. 7A. MOLM-13 and MV4;11 cells, transduced with indicated sgRNAs/Cas9 viruses, were screened with a panel of inhibitors targeting various molecular pathways and assessed using the cell survival method described in FIG. 2A.
FIG. 7B. Analyses of FLT3 inhibitor sensitivities, in MOLM-13 and MV4;11 parental and Crispr-modified cells, as indicated. Drug sensitivity was measured as described in FIG. 2A, with IC50 measured in triplicate.

Experiment [2] deals with MOLM-13 cells. As to the kind of experiment: Cell viability (MTS) drug sensitivity assay in MOLM-13 cells transduced with sgRNA/Cas9 viruses. The class given is cell-based, Human. As for the experimental part: (§1) Small-molecule inhibitors, purchased from LC Laboratories (Woburn, Mass., USA) and Selleck Chemicals (Houston, Tex., USA), were reconstituted in DMSO and stored at −80° C. Inc. Inhibitors were distributed into 384-well plates prepared with a single agent/well in a 7-point concentration series ranging from 10 μM to 0.04 μM for each drug. The final concentration of DMSO was ≤1.1% in all wells. Cells were seeded into 384-well assay plates at 1,000 cells/well in RPMI-1640 media supplemented with fetal bovine serum (15%), L-glutamine, penicillin-streptomycin and antimycotic. After three days of culture at 37° C. in 5% CO2, MTS reagent (CellTiter96 AQueous One; Promega Madison, Wis., USA) was added, optical density was measured at 490 nm, raw absorbance values were adjusted to a reference blank value, and then used to determine cell viability (normalized to untreated control wells). Prizm software(GraphPad) was used to perform non-linear regression analyses on normalized values for the determination of IC50.
FIG. 2. A. Confirmation of genes conferring venetoclax resistance in MOLM-13 and MV4;11 cells and correlations with changes in apoptotic gene transcription in AML patients. MOLM-13 (FIG. 2A) or MV4;11 (FIG. 2B) cells were transduced with lentiviruses carrying single sgRNA/Cas9 constructs targeting TP53, BAX, PMAIP1, FAU or control (non-targeting; NT_g). 10 days post transduction, venetoclax sensitivity was measured in triplicate by colorimetric MTS assay using a 7-point concentration range (4 nM to 10 μM). Percentages of viable cells, after normalization to untreated controls, were fit using non-linear regression analyses; mean and standard errors are shown. MOLM-13P, parental MOLM-13 cells. MV4;11P, parental MV4;11 cells. FIG. 2C. Histogram (log 2 scale) summarizing changes in venetoclax sensitivity in parental MOLM-13 (black shaded), parental MV4;11 cells (grey shaded) or cells transduced with indicated sgRNA/Cas9 viruses., IC50 values were calculated by non-linear regression analyses in the cell viability assay described in panel A. FIG. 2D. […]

Experiment [3] concerns MOLM-13 cells. Briefly: Cell cycle profile by flow cytometry. The class given is cell-based, Human. Particulars: TP53 KO cells, 100 nM entrectinib o/n. Here is the method: FIG. 11. Entrectinib arrests cells with loss-of-function alleles for TP53 in G1. (FIG. 11A). Flow cytometry analyses of cells treated with 100 nM entrectinib o/n or vehicle alone. (FIG. 11B). Histogram representing cell cycle profiles of MOLM-13 cells transduced with sgRNAs/Cas9 viruses for non-targeting sgRNA (NT_g, n=3), TP53 sgRNA (TP53_g, n=3) or BAX (n=1); mean and standard deviation are shown where appropriate. (FIG. 11C). Cell viability assay assessing the sensitivity of the combination of entrectinib and venetoclax relative to sensitivities for each single agent on MOLM-13 cells transduced with sgRNAs/Cas9 viruses for TP53 sgRNA. Data were fit to a non-linear regression analysis with means and standard errors.
In general terms: In flow cytometry, cells or beads pass a laser one at a time.

The test system of experiment [4] is primary AML patient cells. Briefly: Ex vivo viability (MTS) drug sensitivity in primary AML patient samples (Beat AML). The class given is cell-based. Here is the method: as §1
FIG. 3. Venetoclax sensitivity in AML patients inversely correlates with TP53 mutations and low expression of TP53 and BAX. 3A. Venetoclax (VEN) sensitivity in primary AML patient samples was measured in a viability assay across a concentration series ranging from 10 nM to 10 μM. AUC was determined for each sample and plotted relative to TP53 mutant status or TP53 expression levels. LE and HE denote lowest and highest quartile expression values, respectively. […] Within TP53 mutant groups, circles, triangles and square symbols denote loss of function (LOF), gain of function (GOF), and splice variants correspondingly. 3B. Correlation between gene expression levels from AML patient samples for TP53, BAX, PMAIP1 and TMEM14A to the respective venetoclax sensitivities represented by AUC (n=442; [36]). k, slope values generated by linear regression; r, Spearman coefficient; ****, p<0.0001; ns, not significant.
FIG. 12. Selected ex vivo drug sensitivity in AML patients' cells with mutant TP53 mutations. Histogram representing drug sensitivity, measured in primary AML patient cells ex vivo, in a viability MTS assay across a concentration series ranging from 10 nM to 10 μM, using 10,000 cells per well, in triplicates. […] Red bars denote median IC50 value.
(§2) FIG. 13. Analyses of Venetoclax sensitivities in CLL and AML patient cohorts ex vivo. Scatter plot of IC50 values are indicated. Mann-Whitney test was performed on IC50 values to ascertain statistical differences of mean. ***, p<0.001.

Experiment [5] concerns NTRK. Briefly: Western blot of NTRK and downstream MAPK phosphorylation. The class given is cell-based, Human. Particulars: TP53 KO MOLM-13, entrectinib 100 nM overnight; not in control or parental cells. As for the experimental part:
Whole cells extracts from MOLM-13 or MV4;11 cells were prepared using 20 mM Tris-HCl (pH 7.5), 150 mM NaCl, 1 mM Na EDTA, 1 mM EGTA, 1% Triton, 2.5 mM sodium pyrophosphate, 1 mM beta-glycerophosphate, 1 mM Na3VO4, 1 μg/ml leupeptin (Cell Signalling), 1 mM PMSF, […] (Roche) and phosphatase inhibitor cocktail (Sigma-Aldrich). Proteins were resolved on 5-15% gradient gels (Biorad), transferred to PVDF membrane (Amersham) and subjected to immunoblotting using primary, followed by corresponding HRP-conjugated secondary antibodies (Promega), or biotinylated secondary antibody followed by streptavidin conjugated to HRP(TRK antibodies).
FIG. 7E. Western blot analyses of proteins extracted from MOLM-13 parental and MOLM-13 transduced with TP53 sgRNA/Cas9 viruses and treated overnight with venetoclax (100 nM), entrectinib (100 nM) or DMSO (vehicle), and identified with antisera to pan NTRK, phosphorylated NTRK, phosphorylated ERK1/2, ERK1/2, phosphorylated AKT, AKT and GAPDH.
Background: A western blot detects proteins with antibodies after separation by electrophoresis.

Experiment [6] relates to CLL patient specimens. Briefly: Ex vivo venetoclax sensitivity in CLL patient cohort. The class given is cell-based. As for the experimental part:
as §1, §2

The subject of experiment [7] is MOLM-13 cells. Particulars: cells with inactivation of TP53 and BAX, regardless of venetoclax treatment.
Procedure: Cells were loaded in complete medium with 100 nM mitophagy Dye (Mitophagy Detection Kit, Dojindo Molecular Technologies) and 25 nM MitoTracker Deep Red, incubated for 30 min at 37° C. with serum free RPMI, washed and treated with DMSO or 100 nM venetoclax in DMSO for 2 hrs. […] Cells were washed, loaded with lyso dye for 30 min and observed for fluorescence. Mitophagy was detected as intense fluorescence of mitodye upon fusion with lysosomes, detected with lyso dye (488 nm(Ex), 550 nm(Em). 10,000 cells were collected for analysis using a BD FACS Arian™III on 10,000 acquired events. The data were analyzed post acquisition using FlowJo software (Tree Star, Ashland, Oreg., USA). 10,000 cells were acquired using channels 405-2-A(lyso dye), 561-3-A(Mitophagy dye) and 640-1-A(MitoTracker Dye).
Histogram of a representative mitophagy experiment (n=2). […] Histogram of a representative experiment from C (n=2) with 10,000 cells analyzed per sample.
The subject of experiment [8] is MOLM-13 cells. Briefly: Mitochondrial membrane potential (JC-1). The class given is cell-based, Human. The note with it: TP53 and BAX mutant cells, CCCP alone. As for the experimental part: Membrane depolarization was induced with CCCP. Cells were treated with 100 nM venetoclax or DMSO and with or without CCCP for 2 hrs prior to addition of the dye and flow cytometry.
FIG. 5. […] Histogram of a representative mitophagy experiment (n=2). […] FIG. 5B. […] FIGS. 5C, 5D. […] FIG. 5E. […] FIG. 5F. Cell viability assay in response to elesclomol.

Where [9] appears, read: sensitivity printed as IC50≥0.5 μM.

`Cc1cc(Nc2nc(N[C@@H](C)c3ncc(F)cn3)ncc2Cl)n[nH]1` [AZD1480]: the “sensitivity to NTRK/ALK/ROS1 inhibitors” value in experiment [1] is on record as “sustained gain of sensitivity”.

On to `Cc1c2c(nn1C)CSCc1cc(n(C)n1)CSc1cc(c3ccccc3c1)OCCCc1c(C(=O)O)n(C)c3c-2c(Cl)ccc13` [AZD5991], for which the “sensitivity to MCL1 inhibitor, TP53 KO” value in experiment [2] (TP53 KO MOLM13 cells) is on record as “significantly diminished”.

`CS(=O)(=O)N1CCN(Cc2cc3nc(-c4cccc5[nH]ncc45)nc(N4CCOCC4)c3s2)CC1` [GDC-0941]: the “change in drug sensitivity common to modified MOLM-13 and MV4;11 cells” value (“change in drug sensitivity common” below) in experiment [1] is on record as “increased”.

On to `COc1ccc(COc2ccc(Cc3cnc(N)nc3N)cc2OC)cc1` [GW-2580], for which the “sensitivity to NTRK/ALK/ROS1 inhibitors” value in experiment [1] was “sustained gain of sensitivity”.

For the compound `O=S(=O)(NCCNC/C=C/c1ccc(Br)cc1)c1cccc2cnccc12` [H-89], the “change in sensitivity between BAX-inactivated MV4;11 and MOLM-13 cells” value in experiment [1] (BAX-inactivated, also overlapped in TP53 inactivated cells) is recorded as “concordant changes”.

Consider `Oc1cccc(-c2nc(N3CCOCC3)c3oc4ncccc4c3n2)c1` [PI-103], for which, in experiment [1], the “change in drug sensitivity common” value was “increased”.

On to `COCCn1c2c([n+](Cc3cnccn3)c1C)C(=O)c1ccccc1C2=O` [YM-155], for which the “change in drug sensitivity common” value in experiment [1] is reported as “increased”.

For `CC1(COc2ccc3c(c2)ncn3-c2ccc3cccc(N4CCC(N)CC4)c3n2)COC1` [crenolanib], the “sensitivity to FLT3 inhibitors” value in experiment [1] was “loss of sensitivity”.

Turning to `C[C@@H](Oc1cc(-c2cnn(C3CCNCC3)c2)cnc1N)c1c(Cl)ccc(F)c1Cl` [crizotinib], the “sensitivity to NTRK/ALK/ROS1 inhibitors” value in experiment [1] is “sustained gain of sensitivity”.

Turning to `CN(NC(=O)CC(=O)NN(C)C(=S)c1ccccc1)C(=S)c1ccccc1` [elesclomol], in experiment [2] (TP53 and BAX KO cells), the “cell viability in response to elesclomol” value is “still susceptible to cell death”.

With `CN1CCN(c2ccc(C(=O)Nc3n[nH]c4ccc(Cc5cc(F)cc(F)c5)cc34)c(NC3CCOCC3)c2)CC1` [entrectinib], the cell cycle effect entry in experiment [3] is “G1 cell cycle blockade”. Further, the “sensitivity to NTRK/ALK/ROS1 inhibitors” value in experiment [1] is on record as “sustained gain of sensitivity”. Moreover, in experiment [4] (several patient specimens, 10 nM to 10 μM), the “ex vivo drug sensitivity in AML patient cells with TP53 mutations” value is “relatively high sensitivity”. In experiment [5], the “phosphorylation of NTRK and downstream MAPK signaling” value is “significant decreases in phosphorylation”.

Take `O=C(Nc1cnn2ccc(N3CCC[C@@H]3c3cc(F)ccc3F)nc12)N1CC[C@H](O)C1` [larotrectinib]: the “sensitivity to selective NTRK inhibitor” value in experiment [2] (TP53 KO) is on record as “profound gain of sensitivity”.

In the case of `CNC(=O)c1cc(Oc2ccc(NC(=O)Nc3ccc(Cl)c(C(F)(F)F)c3)cc2)ccn1` [sorafenib], in experiment [1], the “sensitivity to FLT3 inhibitors” value is listed as “loss of sensitivity”.

As for `CC1(C)CCC(CN2CCN(c3ccc(C(=O)NS(=O)(=O)c4ccc(NCC5CCOCC5)c([N+](=O)[O-])c4)c(Oc4cnc5[nH]ccc5c4)c3)CC2)=C(c2ccc(Cl)cc2)C1` [venetoclax], the IC50 in experiment [4] (Homo sapiens, AML, 289 patients, read-out: Median IC50, venetoclax sensitivity ex vivo, AML cohort) was found to be 0.1 µM; in experiment [6] (Homo sapiens, CLL, 141 patients, read-out: Median IC50, venetoclax sensitivity ex vivo, CLL cohort), 1.4 µM. In experiment [4] (ex vivo patient samples, Beat AML cohort), the “median IC50 for AML relative to that for CLL” value is 14 times. In addition, the “share of AML specimens exhibiting sensitivity to venetoclax” value in experiment [4] (setting [9]) is on record as “about 40%”. For the same compound, in experiment [6] (setting [9]), the “share of CLL specimens exhibiting sensitivity to venetoclax” value is reported as approximately 55%.

In the case of “carboyl cyanide m-chlorophenyl hydrazine [CCCP]”, the “mitophagy in response to mitochondrial uncoupler” value in experiment [7] is reported as “less likely to undergo mitophagy or mitochondrial death”. In experiment [8], the “loss of mitochondrial membrane potential in response to uncoupler” value is listed as “less likely to lose mitochondrial membrane potential”.

What is called IC50 is the concentration needed to halve the response being measured.
